For assay [1], the target named is T1, human DGKζ (Homo sapiens (Human), UniProt Q13574). Kind of assay: DGKζ LIPGLO assay (extruded liposome substrate). It counts as biochemical. As to the method: The DGKα and DGKζ reactions were performed using either extruded liposome (DGKα and DGKζ LIPGLO assays) or detergent/lipid micelle substrate (DGKα and DGKζ assays). The reactions were carried out in 50 mM MOPS pH 7.5, 100 mM NaCl, 10 mM MgCl2, 1 μM CaCl2, and 1 mM DTT (assay buffer). The reactions using a detergent/lipid micelle substrate also contained 50 mM octyl B-D-glucopyranoside.
T1 sequence (Q13574 other isoform, or with tags, fused parts or gaps): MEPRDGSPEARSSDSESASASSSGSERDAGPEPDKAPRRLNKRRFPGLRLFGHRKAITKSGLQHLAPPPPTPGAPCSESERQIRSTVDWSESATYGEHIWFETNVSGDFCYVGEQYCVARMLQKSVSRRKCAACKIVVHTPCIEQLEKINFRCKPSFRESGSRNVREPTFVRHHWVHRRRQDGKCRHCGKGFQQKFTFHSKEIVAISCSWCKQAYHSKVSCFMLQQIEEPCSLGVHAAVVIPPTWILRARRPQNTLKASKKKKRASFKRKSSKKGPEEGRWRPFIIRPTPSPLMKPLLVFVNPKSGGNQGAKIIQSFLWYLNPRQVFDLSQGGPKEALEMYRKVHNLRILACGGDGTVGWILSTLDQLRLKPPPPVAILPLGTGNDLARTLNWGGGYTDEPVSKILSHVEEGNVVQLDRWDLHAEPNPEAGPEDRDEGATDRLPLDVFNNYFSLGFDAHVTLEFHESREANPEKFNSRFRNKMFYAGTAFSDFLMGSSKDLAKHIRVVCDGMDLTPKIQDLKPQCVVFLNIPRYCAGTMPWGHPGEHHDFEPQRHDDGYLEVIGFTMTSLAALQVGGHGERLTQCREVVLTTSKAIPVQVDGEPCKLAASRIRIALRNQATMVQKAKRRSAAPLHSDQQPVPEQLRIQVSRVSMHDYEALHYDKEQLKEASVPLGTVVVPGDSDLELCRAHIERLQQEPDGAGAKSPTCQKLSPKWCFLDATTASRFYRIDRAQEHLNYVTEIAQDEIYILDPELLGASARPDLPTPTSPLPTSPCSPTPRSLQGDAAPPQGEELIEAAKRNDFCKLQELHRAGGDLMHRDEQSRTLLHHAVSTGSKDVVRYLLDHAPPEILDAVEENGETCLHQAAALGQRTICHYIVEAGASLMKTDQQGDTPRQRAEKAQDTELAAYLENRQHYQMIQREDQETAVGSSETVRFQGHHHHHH
(§1) A 5 mL enzyme/substrate solution at 2× final reaction concentration was prepared by combining 2.5 mL 4× enzyme solution (20 nM DGKα or DGKζ (prepared as described below) in assay buffer) and 2.5 mL of either 4× liposome or 4× detergent/lipid micelle solution (compositions described below) and incubated at room temperature for 10 minutes. Next, 1 μL 2× enzyme/substrate solution was added to wells containing the test compound and reactions were initiated with the addition of 1 μL 300 uM ATP. The reactions were allowed to proceed for 1 hr, after which 2 μL Glo Reagent (Promega V9101) was added and incubated for 40 minutes. Next, 4 μL Kinase Detection Reagent was added and incubated for 30 minutes. Luminescence was recorded using an EnVision microplate reader. […] The compounds were evaluated at 11 concentrations to determine IC50.
(§2) The PC, DAG, and PS were dissolved in chloroform, combined, and dried in vacuo to a thin film. The lipids were hydrated to 20 mM in 50 mM MOPS pH 7.5, 100 mM NaCl, 5 mM MgCl2, and were freeze-thawed five times. The lipid suspension was extruded through a 100 nm polycarbonate filter eleven times. […] The liposome preparation was stored at 4° C. for as long as four weeks.
Baculovirus amplification was achieved using infected Sf9 cells at 1:1500 virus/cell ratios, and grown for 65 hours at 27° C. post-transfection.
(§3) The expression scale up for each protein was carried out in the Cellbag 50 L WAVE-Bioreactor System 20/50 from GE Healthcare Bioscience. 12 L of 2×10^6 cells/mL Sf9 cells (Expression System, Davis, Calif.) grown in ESF921 insect medium (Expression System) were infected with virus stock at 1:200 virus/cell ratios, and grown for 66-68 hours at 27° C. post-infection. The infected cell culture was harvested by centrifugation at 2000 rpm for 20 min 4° C. in a SORVALL® RC12BP centrifuge. The cell pellets were stored at −70° C. until purification.
The cells were lysed using nitrogen cavitation method with a nitrogen bomb (Parr Instruments), and the lysates were clarified by centrifugation. […] The three steps column chromatography included nickel affinity resin capture (i.e. HisTrap FF crude, GE Healthcare), followed by size exclusion chromatography (i.e. HiLoad 26/600 Superdex 200 prep grade, GE Healthcare for DGK-alpha, and HiPrep 26/600 Sephacryl S 300_HR, GE Healthcare for DGK-zeta). The third step was ion exchange chromatography, and differed for the two isoforms. DGKα was polished using Q-Sepharose anion exchange chromatography (GE Healthcare). DGKζ was polished using SP Sepharose cation exchange chromatography (GE Healthcare). The proteins were delivered at concentrations of ≥2 mg/mL. The formulation buffers were identical for both proteins: 50 mM Hepes, pH 7.2, 500 mM NaCl, 10% v/v glycerol, 1 mM TCEP, and 0.5 mM EDTA.

The target in assay [2] is T2, human DGKα (Homo sapiens (Human), UniProt P23743). Briefly: biochemical. The settings on record: detergent/lipid micelle substrate; read-out: DGKα IC50. The essentials:
(§4)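 Enzymes were baculovirus/Sf9 full-length human DGKα or DGKζ with His tag. The substrate was PS/DAG in octyl glucoside micelles, in MOPS pH 7.5 buffer with NaCl, MgCl2, CaCl2 and DTT.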

Assay [3] concerns the target T1, human DGKζ. Briefly: DGKζ assay (detergent/lipid micelle substrate). The format is biochemical. The method in brief:
as §4

Assay [4] relates to pre-activated CD4 T cells and Raji cells. Briefly: Raji CD4 T Cell IL2 Assay. The format is cell-based. The settings on record: Homo sapiens, Raji.
Assay [5] concerns the target T2, human DGKα. Kind of assay: DGKα LIPGLO assay (extruded liposome substrate). It counts as biochemical. The protocol: The DGKα and DGKζ reactions were performed using either extruded liposome (DGKα and DGKζ LIPGLO assays) or detergent/lipid micelle substrate (DGKα and DGKζ assays). The reactions were carried out in 50 mM MOPS pH 7.5, 100 mM NaCl, 10 mM MgCl2, 1 μM CaCl2, and 1 mM DTT (assay buffer). The reactions using a detergent/lipid micelle substrate also contained 50 mM octyl B-D-glucopyranoside. […] The lipid substrate concentrations were […], 0.25 mM DAG, and 2.75 mM PC for the extruded liposome reactions.
as §1, with “The compound inhibition studies were carried out as follows: 50 nL droplets of each test compound (top concentration 10 mM with 11 point, 3-fold dilution series for each compound) solubilized in DMSO were transferred to wells of a white 1536 well plate (Corning 3725). A 5” for “A 5”
as §2
Human DGK-alpha-TVMV-His-pFBgate and human DCK-zeta-transcript variant-2-TVMV-His-pFBgate baculovirus samples were generated using the Bac-to-Bac baculovirus expression system (Invitrogen) according to the manufacturer's protocol. The DNA used for expression of DGK-alpha and DGK-zeta have SEQ ID NOs: 1 and 3, respectively. Baculovirus amplification was achieved using infected Sf9 cells at 1:1500 virus/cell ratios, and grown for 65 hours at 27° C. post-transfection.
as §3
Full length human DGKα and DGKζ, each expressed containing a TVMV-cleavable C-terminal Hexa-His tag sequence (SEQ ID NOs: 2 and 4, respectively) and produced as described above, were purified from Sf) baculovirus-infected insect cell paste. The cells were lysed using nitrogen cavitation method with a nitrogen bomb (Parr Instruments), and the lysates were clarified by centrifugation. […] The three steps column chromatography included nickel affinity resin capture (i.e. HisTrap FF crude, GE Healthcare), followed by size exclusion chromatography (i.e. HiLoad 26/600 Superdex 200 prep grade, GE Healthcare for DGK-alpha, and HiPrep 26/600 Sephacryl S 300_HR, GE Healthcare for DGK-zeta). The third step was ion exchange chromatography, and differed for the two isoforms.

The mark [6] stands for this setting: extruded liposome substrate, read-out: DGKζ LIPGLO IC50.
The mark [7] stands for this setting: detergent/lipid micelle substrate, read-out: DGKζ IC50.

pIC50: −log10 of the molar value. Some results are limits rather than exact numbers.

T2 sequence (P23743 other isoform, or with tags, fused parts or gaps): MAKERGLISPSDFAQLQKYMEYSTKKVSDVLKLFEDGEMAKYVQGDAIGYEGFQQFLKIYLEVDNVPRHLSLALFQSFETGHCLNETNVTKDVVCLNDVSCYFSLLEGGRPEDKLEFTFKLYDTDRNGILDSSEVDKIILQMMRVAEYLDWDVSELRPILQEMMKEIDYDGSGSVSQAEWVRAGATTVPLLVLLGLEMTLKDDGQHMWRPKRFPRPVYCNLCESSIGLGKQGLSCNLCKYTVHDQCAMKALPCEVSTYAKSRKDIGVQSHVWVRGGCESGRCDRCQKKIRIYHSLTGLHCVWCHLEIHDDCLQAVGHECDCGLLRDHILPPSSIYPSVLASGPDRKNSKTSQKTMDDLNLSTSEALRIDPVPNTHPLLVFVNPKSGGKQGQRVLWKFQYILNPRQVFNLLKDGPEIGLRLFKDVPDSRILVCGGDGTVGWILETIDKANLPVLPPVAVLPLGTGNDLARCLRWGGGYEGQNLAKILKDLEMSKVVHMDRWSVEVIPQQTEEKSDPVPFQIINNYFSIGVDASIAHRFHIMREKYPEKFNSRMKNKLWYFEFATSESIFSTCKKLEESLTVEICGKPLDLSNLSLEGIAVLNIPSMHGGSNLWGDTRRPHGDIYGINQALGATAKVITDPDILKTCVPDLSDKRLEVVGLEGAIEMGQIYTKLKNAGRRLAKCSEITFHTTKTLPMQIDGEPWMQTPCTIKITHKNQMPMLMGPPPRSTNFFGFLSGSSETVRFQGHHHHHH

On to `C#CCn1c(=O)c([N+](=O)[O-])c(N2CCN(C(c3ccc(F)cc3)c3ccccc3OC)CC2)c2nc(C#N)ccc21` (single isomer, unassigned) [Example 130, 8-(4-((4-fluorophenyl)(2-methoxyphenyl)methyl)piperazin-1-yl)-7-nitro-6-oxo-5-(prop-2-yn-1-yl)-5,6-dihydro-1,5-naphthyridine-2-carbonitrile], for which the pIC50 was 6.51 in assay [1] (setting [6]), 4.52 in assay [2], 5.72 in assay [3] (setting [7]) and 7.72 in assay [4].

For `CC(c1ccc(F)cc1)N1CCN(c2c(C#N)c(=O)n(CC3CC3)c3ccc(Br)nc23)CC1` (single isomer, unassigned) [Example 163, 6-bromo-1-(cyclopropylmethyl)-4-(4-(1-(4-fluorophenyl)ethyl)piperazin-1-yl)-2-oxo-1,2-dihydro-1,5-naphthyridine-3-carbonitrile], the pIC50 in assay [5] was 3.96; in assay [1] (DGKζ LIPGLO IC50, extruded liposome substrate) it was 3.96; in assay [2], < 3.62; in assay [3] (DGKζ IC50, detergent/lipid micelle substrate), < 3.62.

Consider `Cn1c(=O)c([N+](=O)[O-])c(N2CCN(Cc3cccc4ccccc34)CC2)c2nc(Br)ccc21` [Example 55, 6-bromo-1-methyl-4-(4-(naphthalen-1-ylmethyl)piperazin-1-yl)-3-nitro-1,5-naphthyridin-2(1H)-one], for which the pIC50 was 6.72 in assay [5], 5.74 in assay [1] (setting [6]) and 7.42 in assay [4].

Regarding `C#CCn1c(=O)c([N+](=O)[O-])c(N2CCN(C(c3ccccc3)c3ccccc3)CC2)c2ncccc21` [Example 165, 4-(4-benzhydrylpiperazin-1-yl)-3-nitro-1-(prop-2-yn-1-yl)-1,5-naphthyridin-2(1H)-one], the pIC50 in assay [5] is 5.55; in assay [1] (setting [6]), 5.39; in assay [2], 5.47; in assay [3] (setting [7]) it was 4.04.

Regarding `Cc1ccc2c(n1)c(N1CCN(C(c3ccc(F)cc3)C3CC3)CC1)c(C#N)c(=O)n2C` (centres unmarked) [Example 250, 4-{4-[cyclopropyl(4-fluorophenyl)methyl]piperazin-1-yl}-1,6-dimethyl-2-oxo-1,2-dihydro-1,5-naphthyridine-3-carbonitrile], the figures for the pIC50 in assay [5] and in assay [1] (setting [6]) were 5.29 and < 3.62, respectively.

With `COc1ncccc1C(c1ccc(F)cc1)N1CCN(c2c(C#N)c(=O)n(C)c3ccc(C)nc23)CC1` (centres unmarked) [Example 254, 4-{4-[(4-fluorophenyl)(2-methoxypyridin-3-yl)methyl]piperazin-1-yl}-1,6-dimethyl-2-oxo-1,2-dihydro-1,5-naphthyridine-3-carbonitrile], the pIC50 in assay [5] is 5.77; in assay [1] (setting [6]), 4.80.

Regarding `COc1cccnc1C(c1ccc(F)cc1)N1CCN(c2c(C#N)c(=O)n(C)c3ccc(C)nc23)CC1` (centres unmarked) [Example 255, 4-{4-[(4-fluorophenyl)(3-methoxypyridin-2-yl)methyl]piperazin-1-yl}-1,6-dimethyl-2-oxo-1,2-dihydro-1,5-naphthyridine-3-carbonitrile], the pIC50 in assay [5] was 5.85; in assay [1] (setting [6]), 4.68.

On to `Cn1c(=O)c(C#N)c(N2CCN(Cc3ccc(Cl)cc3O)CC2)c2nc(Br)ccc21` [Example 266, 6-bromo-4-{4-[(4-chloro-2-hydroxyphenyl)methyl]piperazin-1-yl}-1-methyl-2-oxo-1,2-dihydro-1,5-naphthyridine-3-carbonitrile], for which the pIC50 was 4.96 in assay [1] (setting [6]), 7.57 in assay [2], < 3.62 in assay [3] (setting [7]) and 7.39 in assay [4].

With `Cn1c(=O)c(C#N)c(N2CCN(C(c3ccc(F)cc3)c3ccc(F)cc3)CC2)c2ncccc21` [Example 347, 4-{4-[bis(4-fluorophenyl)methyl]piperazin-1-yl}-1-methyl-2-oxo-1,2-dihydro-1,5-naphthyridine-3-carbonitrile], the pIC50 was 5.59 in assay [5] and 5.92 in assay [4].

Turning to `Cn1c(=O)c(C#N)c(N2CCN(Cc3ccc(OC(F)(F)F)cc3O)CC2)c2nc(Cl)ccc21` [Example 381, 6-chloro-4-(4-{[2-hydroxy-4-(trifluoromethoxy)phenyl]methyl}piperazin-1-yl)-1-methyl-2-oxo-1,2-dihydro-1,5-naphthyridine-3-carbonitrile], the pIC50 was 4.57 in assay [1] (setting [6]) and < 3.62 in assay [3] (setting [7]).

On to `Cc1ccc(C(c2ccccc2)N2CCN(c3c(C#N)c(=O)n(C)c4ccc(C#N)nc34)CC2)cc1` (centres unmarked) [Example 408, 5-methyl-8-{4-[(4-methylphenyl)(phenyl)methyl]piperazin-1-yl}-6-oxo-5,6-dihydro-1,5-naphthyridine-2,7-dicarbonitrile], for which the figures for the pIC50 in assay [5] and in assay [1] (setting [6]) were 5.05 and 5.96, respectively.

Take `COc1cc(F)ccc1C(c1ccc(F)cc1OC)N1CCN(c2c(C#N)c(=O)n(C)c3ccc(C#N)nc23)CC1` [Example 409, 8-{4-[bis(4-fluoro-2-methoxyphenyl)methyl]piperazin-1-yl}-5-methyl-6-oxo-5,6-dihydro-1,5-naphthyridine-2,7-dicarbonitrile]: the pIC50 in assay [5] is < 3.62; in assay [1] (setting [6]), 6.02.

On to `Cc1ccc(C(c2ccccc2)N2CCN(c3c(C#N)c(=O)n(C)c4ccc(Br)nc34)CC2)cc1` (centres unmarked) [Example 431, 6-bromo-1-methyl-4-{4-[(4-methylphenyl)(phenyl)methyl]piperazin-1-yl}-2-oxo-1,2-dihydro-1,5-naphthyridine-3-carbonitrile], for which the pIC50 in assay [5] and in assay [1] (setting [6]) was 5.05 in each case.

These data come from patent publication US11866430B2, “Naphthyridinone compounds useful as T cell activators” (priority 2018, dated 2024).
